{"source": "patent US20040105900A1", "about": "“Extracts derived from Pueraria mirifica, Butea superba and/or Mucuna collettii and extraction thereof” (CHEIL JEDANG CORPORATION, priority 1999, published 2004)", "origin": "cited, not measured here", "system": "skin of menopausal females", "details": "after 6 months of application to the skin"}
{"substance": "estrogen", "values": [{"measurement": "improvement in the depth of wrinkles", "value": 60, "unit": "%"}]}
